The record followed here is patent publication US10144758B2, “Deuterated bile acids” (Metselex, Inc., priority 2013, dated 2018).

This test has as its system primary rat hepatocytes. Put plainly: TGF-β1-induced apoptosis, percentage of apoptotic cells. It counts as cell-based. The note with it: 1 nM TGF-β1 36 hours; 100 μM compound pre-treatment; FIG. 8B. How it is done: Primary rat hepatocytes were isolated from male rats (100-150 grams) by collagenase perfusion (as described by Solá S, et al., 2003, Journal of Biological Chemistry 278: 48831-48838)). Briefly, rats were anesthetized with phenobarbital sodium (100 mg/kg body weight) injected into the peritoneal cavity. After administration of heparin (200 units/kg body weight) in the tail vein, the animal's abdomen was opened and the portal vein exposed and cannulated. The liver was then perfused at 37° C. in situ with a calcium-free Hanks' Balanced Salt Solution (HBSS) for about 10 minutes, and then with 0.05% collagenase type IV in calcium-present HBSS for another 10 minutes. […] Cell viability was determined by trypan blue exclusion and was typically 80-85%. […] Fluorescence was visualized using an Axioskop fluorescence microscope (Carl Zeiss GmbH). Blue-fluorescent nuclei were scored blindly and categorized according to the condensation and staining characteristics of chromatin. […] Five random microscopic fields per sample containing approximately 150 nuclei were counted, and mean values expressed as the percentage of apoptotic nuclei. […] Results are expressed as means±SEM of at least three experiments. *p<0.01 from control; § p<0.05 and †p<0.01 from TGF-β1.

Take “7,8-[^2H]-3α,7α-dihydroxy-5β-cholan-24-oic acid/7-[^2H]-3α,7α-dihydroxy-5β-cholan-24-oic acid [Compound 5]”: the “reduction of the percentage of apoptotic cells” value is on record as ~40%.

Turning to `C[C@H](CCC(=O)O)[C@H]1CC[C@H]2[C@@H]3[C@@H](O)C[C@@H]4C[C@H](O)CC[C@]4(C)[C@H]3CC[C@]12C` [UDCA, Ursodeoxycholic acid, reference compound], the “reduction of the percentage of apoptotic cells” value is on record as ~40%.
